Where a SMILES comes first, the peptide text is derived from it. Where no end group is shown, it is not given here. [ ]: non-standard residue; d: D form.
Legend:
MRSA strains = experiment: MIC, synergistic activity with Ertapenem (4 μg/ml); type: cell-based, S. aureus; conditions: S. aureus COL with 4 μg/ml Ertapenem (synergistic activity)
Protocol: (§1) Peptides Chain 104, Chain 105, Chain 201, Chain 308, Chain 310 were tested against antibiotic-sensitive strains of S. aureus RN4220 and methicillin resistant strains of S. aureus COL (MRSA). Chain peptides comprising of either L- or D-form amino acids were tested against these bacteria, and the D-form peptides were found have better activity compared to L-form (Table 6). Synergistic activity of chain peptides along with Ertapenem (4 μg/ml) was tested to know whether it will influence the activity against MRSA strains. […] Chain 310 has the best antibacterial activity against the MRSA strains with a MIC of 0.06 & 0.03 μg/ml along with Ertapenem (4 μg/ml) for both forms of L and D-peptides (Table 6).

S. aureus RN4220 = type: cell-based; conditions: antibiotic sensitive strain S. aureus RN4220
Protocol: Minimum inhibition concetrations (MICs) were determined against Escherichia coli (ATCC 25922), Staphylococcus aureus (ATCC 25923), Klebsiella pneumoniae (ATCC 10031) and Pseudomonas aeruginosa (ATCC 27853). Also clinical strains of E. coli, K. pneumoniae, E. cloacae, P. aeruginosa, Serratia marcescens, Proteus mirabilis, S. pneumoniae, Acinetobacter baumannii, A. johnsonii and S. aureus were used for MICs assays. Additionally, clinical strains of yeast including Candida albicans, C. glabrata, C. parapsilosis and C. quillermondiae were used. The susceptibility of these microorganisms to Chain peptides were determined using micro broth dilution assay. Colonies of the respective microorganism from Muller Hinton (MH) agar plates incubated overnight were suspended in MH broth media and final concentration of microorganism was adjusted to 5.0×10^5 cfu/ml. An aliquot of 10 μl of each Chain peptide, or gentamicin, tetracycline as reference antibiotics were added in differing concentrations along with 90 μl of bacterial suspension to 96 well polypropylene plates and incubated at 37° C. for 20 to 24 hours. Concentrations of Chain peptides and reference antibiotics ranged from 0.125 to 128 μg/ml and the MICs were recorded as the lowest concentration with no visual growth of bacteria. Similarly, antifungal MICs were tested in Potato dextrose broth.
as §1

human erythrocytes = type: cell-based
Protocol: In hemolysis assays, the ability of peptides at 128 μg/ml concentration to lyse human erythrocytes to release hemoglobin was measured. The peptides described here preferably have low hemolytic activity (0.2 to 3.8% hemolysis) in mammal body. […] These peptides are useful as antimicrobial drugs as they show little or no side effects at concentrations needed to kill bacteria.
Minimum inhibition concentrations (MICs) were tested by microbroth dilution method and Chain 104, 105 and 109 inhibited the growth of Escherichia coli (ATCC 25922), Staphylococcus aureus (ATCC 25923), Klebsiella pneumoniae (ATCC 10031) and Pseudomonas aeruginosa (ATCC 27853) between 1-8 μg/ml respectively (Tables 3a, 3b and 3c). The membranolytic activities of the peptides were tested by measuring the release of hemoglobin from erythrocytes of fresh blood donated by voluntiers. Hemoglobin levels were determined spectrometrically by taking OD at 540 nm by following the protocol of Schmidtchen et al., 2011.

[1] = +4, 25, 37 and 45° C., 14 days, PBS pH 7.4, activity by RDA
Protocol: FIG. 8a. […] Antibacterial activity was tested by aliquoting 20 μg of peptides incubated at different temperature and activity was measured by zone of inhibition. Peptides at −20° C. served as control.
(§2) Thermal stability was evaluated by diluting peptides to the concentration of 2 mg/ml in PBS buffer (pH 7.4) and incubating at different temperatures, such as +4° C., 25° C. (RT), 37° C. and 45° C., peptides stored at −20° C. were used as control. After each time interval, 100 μl (2 mg/ml) of peptides were taken and stored at −20° C. for radial diffusion assay to determine the antibacterial activity (FIG. 8). Peptides were also tested by diluting them at different pH values starting from pH 4 to 9. The effect of NaCl on the antimicrobial activity was tested by adding different concentrations (50, 100 and 200 mM) of NaCl to MH medium and the minimum inhibitory concentrations were tested against 4 ATCC bacterial strains.

[2] = pH 4 to 9, activity by RDA
Protocol: FIG. 9a. pH stability of chain peptides 104 and 105 was determined by radial diffusion assay (RDA). Different pH ranging from 4-9 was used to check the zone of inhibition.
as §2

S. aureus = experiment: Antibacterial activity analysis of protein on LB plate; type: cell-based
Protocol: Both folded and unfolded proteins were tested for antibacterial activity against S. aureus by pipetting 10 μg of protein on the S. aureus culture on an LB plate. The activity was also tested in folded and unfolded protein digested with trypsin in 0.01% acetic acid at concentrations of 30 and 60 μg/ml.

In the case of CC[C@@H](C)[C@@H](NC(=O)[C@@H](Cc1c[nH]c2ccccc12)NC(=O)[C@H](N)CCCCN)C(=O)N[C@@H](C(=O)N[C@H](Cc1c[nH]c2ccccc12)C(=O)N[C@H](CCCNC(=N)N)C(=O)N[C@H](Cc1c[nH]c2ccccc12)C(=O)N[C@H](CCCNC(=N)N)C(=O)N[C@H](Cc1ccccc1)C(=O)N[C@H](CCCCN)C(=O)N[C@H](CCCNC(=N)N)C(=O)O)C(C)C [201 D] (H-[dK][dW][dI][dV][dW][dR][dW][dR][dF][dK][dR]-OH), the “Minimum inhibitory concentration (MICs), S. aureus COL + 4 μg/ml Ertapenem” value (MRSA strains) is reported as 1 µg/mL and the “Minimum inhibitory concentration (MICs), S. aureus RN4220” value (S. aureus RN4220) is reported as 2 µg/mL.

With CC(C)C[C@@H](NC(=O)[C@H](N)CCCNC(=N)N)C(=O)N[C@H](CCCCN)C(=O)N[C@H](Cc1c[nH]c2ccccc12)C(=O)N[C@H](Cc1ccccc1)C(=O)N[C@H](CC(C)C)C(=O)N[C@H](CC(C)C)C(=O)N[C@H](Cc1ccccc1)C(=O)N[C@H](CCCNC(=N)N)C(=O)N[C@H](CCCCN)C(=O)N[C@H](CCCNC(=N)N)C(=O)O [308 D] (H-[dR][dL][dK][dW][dF][dL][dL][dF][dR][dK][dR]-OH) the “Minimum inhibitory concentration (MICs), S. aureus COL + 4 μg/ml Ertapenem” value (MRSA strains) was 1 µg/mL and the “Minimum inhibitory concentration (MICs), S. aureus RN4220” value (S. aureus RN4220) was 4 µg/mL.

With CC(C)C[C@@H](NC(=O)[C@@H](CCCCN)NC(=O)[C@@H](CCCCN)NC(=O)[C@@H](Cc1ccccc1)NC(=O)[C@@H](CC(C)C)NC(=O)[C@@H](Cc1c[nH]c2ccccc12)NC(=O)[C@@H](CCCNC(=N)N)NC(=O)[C@@H](Cc1c[nH]c2ccccc12)NC(=O)[C@@H](CCCCN)NC(=O)[C@@H](CCCNC(=N)N)NC(=O)[C@H](N)CCCCN)C(=O)O [310 D] (H-[dK][dR][dK][dW][dR][dW][dL][dF][dK][dK][dL]-OH) the “Minimum inhibitory concentration (MICs), S. aureus COL + 4 μg/ml Ertapenem” value (MRSA strains) was under 0.03 µg/mL and the “Minimum inhibitory concentration (MICs), S. aureus RN4220” value (S. aureus RN4220) was over 64 µg/mL.

In the case of KRKWRWLFKKL [Chain310], the “side effects to humans as tested by hemolysis assay” value (shortened to “side effects to humans as tested”) (human erythrocytes) is reported as “little side effects to humans”.

In the case of KRKWRWLFKKL [Compound 310], the “Minimum inhibitory concentration (MICs), S. aureus COL + 4 μg/ml Ertapenem” value (MRSA strains) is reported as 0.06 µg/mL and the “Minimum inhibitory concentration (MICs), S. aureus RN4220” value (S. aureus RN4220) is reported as over 64 µg/mL.

With KWIVWRWRFKR [Chain201] the “thermostability” value [1] was “not hindered by pH or temperature even upto 45 °C for over 14 days”, the “pH stability” value [2] was “not hindered by pH” and the “side effects to humans as tested” value (human erythrocytes) was “little side effects to humans”.

With KWIVWRWRFKR [Compound 201] the “Minimum inhibitory concentration (MICs), S. aureus COL + 4 μg/ml Ertapenem” value (MRSA strains) was 0.5 µg/mL and the “Minimum inhibitory concentration (MICs), S. aureus RN4220” value (S. aureus RN4220) was 64 µg/mL.

With RKWRAMIRLHAKRLRK [Chain104] the “thermostability” value [1] was “not hindered by pH or temperature even upto 45 °C for over 14 days”, the “pH stability” value [2] was “not hindered by pH” and the “side effects to humans as tested” value (human erythrocytes) was “little side effects to humans”.

With RKWRAMIRLHAKRLRK [Compound 104] the “Minimum inhibitory concentration (MICs), S. aureus COL + 4 μg/ml Ertapenem” value (MRSA strains) was 0.25 µg/mL and the “Minimum inhibitory concentration (MICs), S. aureus RN4220” value (S. aureus RN4220) was over 64 µg/mL.

For RKWRAMIRLHAKWLRK [Chain105], the “thermostability” value [1] was “not hindered by pH or temperature even upto 45 °C for over 14 days”, the “pH stability” value [2] was “not hindered by pH” and the “side effects to humans as tested” value (human erythrocytes) was “little side effects to humans”.

In the case of RKWRAMIRLHAKWLRK [Compound 105], the “Minimum inhibitory concentration (MICs), S. aureus COL + 4 μg/ml Ertapenem” value (MRSA strains) is reported as 0.5 µg/mL and the “Minimum inhibitory concentration (MICs), S. aureus RN4220” value (S. aureus RN4220) is reported as over 64 µg/mL.

For RLKRWRLFRKR [Chain306], the “thermostability” value [1] was “not hindered by pH or temperature even upto 45 °C for over 14 days” and the “pH stability” value [2] was “not hindered by pH”.

In the case of RLKWFLLFRKR [Chain308], the “thermostability” value [1] is reported as “not hindered by pH or temperature even upto 45 °C for over 14 days”, the “pH stability” value [2] is reported as “not hindered by pH” and the “side effects to humans as tested” value (human erythrocytes) is reported as “little side effects to humans”.

For RLKWFLLFRKR [Compound 308], the “Minimum inhibitory concentration (MICs), S. aureus COL + 4 μg/ml Ertapenem” value (MRSA strains) was 0.5 µg/mL and the “Minimum inhibitory concentration (MICs), S. aureus RN4220” value (S. aureus RN4220) was over 64 µg/mL.

In the case of RLKWFWLFRKR [Chain307], the “side effects to humans as tested” value (human erythrocytes) is reported as “little side effects to humans”.

With RRLIWRRFKWLR [Chain204] the “thermostability” value [1] was “not hindered by pH or temperature even upto 45 °C for over 14 days”, the “pH stability” value [2] was “not hindered by pH” and the “side effects to humans as tested” value (human erythrocytes) was “little side effects to humans”.

In the case of WWRLHAKWKLW [Chain109], the “side effects to humans as tested” value (human erythrocytes) is reported as “little side effects to humans”.

B1: En-MAP1: protein of 549 amino acids from an endophyte of Empetrum nigrum, GenBank accession number KC466596 (protein, listed as Empetrum nigrum)
chain: MRLVAHPVPDAPLYALMIKACSMGIPQPNDNLWKPRNPLLAKEEKTSKRGRTAPDTERALDLFREMTLRYNIRPTAEVYTAIIAACVKRDDMYDKGFGLFKKMVELERNRMSSEGHDSTSFAPTRATYNALLRGCARNKDLLRARWILAEMLRTAQAKWQEFMEKSKKGEEGVQEWELLEVEEMRPDTNTMAFLFYTYASHTTSSKAVPETEGKKELEGKAEERASEVTSVSPVSEPPEPMDESKLVYSLPTSSQAILREVTSLLDRIKSDQGQQSNLLSSVQINSKLLNSYIAVLSAHCRSSQVVERISEVVVGTKENPKSLFEETGTSVNGYTCFTVIDACGMMEHSPDTYHLACEMWQRWLSLVENATFHRENPLKAKEIGLDSRTISDCWSAMIRLHAKYNQVDEAMKLVHEFARLYPPASLFNSLTFEPSSTSSSSLSPRKGVQEISPLFSSTSLTHSIRGRDISRIQNTMSQDPTLQFRAVQILHLRLVELETRPKDLAYLSWLLKSYEHQLQPKRPKSLQGDLFTSRQAAYNRIVQQRTSSR
With B1 the “antibacterial activity against S. aureus” value (S. aureus; expressed, folded protein) was “no activity was observed”, the “antibacterial activity against S. aureus” value (S. aureus; folded full protein digested with trypsin, data not shown) was “antibacterial activity was observed for up to two hours after digestion” and the “antibacterial activity against S. aureus” value (S. aureus; trypsin digest of the unfolded protein) was “No activity was detected”.

Source: US10457710B2, “Antimicrobial peptides, their variants and uses” (priority 2015, dated 2019)
